≈ marks a conversion by molar mass, not a printed value. Like-named read-outs stand apart in the source and are kept apart here. Non-standard residues stand in square brackets, D forms with d. Residues, ends and D or L forms follow the SMILES beside them. *: point of attachment. Lauroyl = CCCCCCCCCCCC(=O)*
Assays:
[1] = system: Propionibacterium acnes ATCC 6919; format: cell-based
Description: A second method that was used to determine the MIC in P. acnes for selected antimicrobial agents was a non-standard broth microdilution method that used an assay buffer composed of reinforced Clostridial broth. Briefly, a log-phase bacterial culture of P. acnes was used to inoculate wells of a 96-well plate so that the final inoculum for each well contained 5×10^5 to 1×10^6 CFU/milliliter. […] Plates were incubated for 48-72 hours at 37° C. in a GasPak anaerobic chamber. The lowest concentration of peptide that contained no visible growth as evidenced by a lack of turbidity when compared to the control (no peptide) was determined as the MIC. MIC values that utilized this method of MIC determination are indicated in Table 9 with a subscript letter “d.”

[2] = system: Staphylococcus aureus ATCC 29213; settings: ATCC 29213, pH 7.4
[3] = system: Staphylococcus epidermidis ATCC 12228; assay: MIC, NCCLS M7-A6 broth microdilution (Table 9, no superscript); format: cell-based; settings: ATCC 12228
Method in brief: (§1)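 Values come from a broth microdilution assay run in cation-adjusted Mueller Hinton broth with an inoculum of 5×10^5 to 1×10^6 CFU/milliliter, incubated overnight at 37° C and read as absence of visible turbidity.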

[4] = system: Pseudomonas aeruginosa ATCC 27853; assay: as above; format: cell-based; settings: ATCC 27853
Method in brief: as §1

[5] = system: Escherichia coli ATCC 25922; assay: as above; format: cell-based; settings: ATCC 25922
Method in brief: as §1

Salmonella dublin (Lane) [6] = settings: pH 7.4
[7] = system: Staphylococcus aureus ATCC 29213; assay: MIC, NCCLS M7-A6 broth microdilution, cation-adjusted Mueller Hinton broth (Table 9, no superscript); format: cell-based; settings: ATCC 29213
Method in brief: as §1

Salmonella dublin (Lane) [8] = assay: MIC, NCCLS M7-A6 broth microdilution (Table 9, no superscript); format: cell-based
Method in brief: as §1

[9] = system: Candida albicans ATCC 18804; assay: MIC in yeasts, NCCLS M27-A2 broth microdilution, RPMI 1640 (Table 9, letter e); format: cell-based; settings: ATCC 18804
Method in brief: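 Broth microdilution per NCCLS M27-A2 in RPMI 1640 with glutamine and phenol red, final inoculum 0.5×10^3–2.5×10^3 CFU/milliliter. Incubated 24 to 48 hours at 37° C; MIC is the lowest peptide concentration with no visible growth.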

human red blood cells = format: cell-based; settings: red cells of human
Description: Hemoglobin-release assays with human red blood cells (RBC) were performed to determine the hemolytic activity of granulysin peptides. Human RBCs (San Diego Blood Bank, San Diego, Calif.) were washed three times in PBS buffer (8 mM Na2HPO4, 1.5 mM KH2PO4, 140 mM NaCl and 2.7 mM KCl, pH 7.4), resuspended in PBS to the concentration of 5% (v/v). The RBC were then exposed to different peptide compositions at various concentrations (100-6.25 micromolar) and incubated at 37° C. for 60 minutes in a total volume of 120 microliters. Every experiment included a negative control without peptide and maximum control treated with 5% TX-100 for complete hemoglobin release. Samples were centrifuged for 1 minute at 13,000 g to remove debris and intact cells. The hemoglobin-containing supernatant was removed and transferred to a microwell plate. Hemoglobin release was quantified at A540 using a Versamax plate reader (Molecular Devices). The degree of hemolysis is expressed as percentage of hemolysis compared to the […], using the following formula: % hemolysis=(sample−neg. control)/(max. control−neg. control)×100.

| MIC P. acnes [1] [µg·days/mL] | MIC S. aureus [2] [b ug/mL] | MIC S. epidermidis [3] [µg/mL] | MIC P. aeruginosa [4] [µg/mL] | MIC E. coli [5] [µg/mL] | MIC S. dublin (Salmonella dublin (Lane) [6]) [b ug/mL] | SMILES | also measured |
| --- | --- | --- | --- | --- | --- | --- | --- |
| 6 | 6 | >64 | >64 | >64 | 6 | CSCC[C@H](NC(=O)[C@H](Cc1ccccc1)NC(=O)[C@H](CC(N)=O)NC(=O)[C@H](CCCNC(=N)N)NC(=O)[C@H](CO)NC(=O)[C@H](Cc1c[nH]c2ccccc12)NC(=O)[C@H](CC(=O)O)NC(=O)[C@H](CCCNC(=N)N)NC(=O)[C@H](Cc1c[nH]c2ccccc12)NC(=O)[C@H](CCCNC(=N)N)NC(=O)[C@H](CO)NC(=O)[C@H](CCCNC(=N)N)NC(=O)CNC(=O)[C@@H](NC(=O)[C@H](CCCNC(=N)N)NC(=O)[C@H](CO)NC(=O)[C@@H](NC(=O)[C@H](CCCNC(=N)N)NC(=O)[C@@H](NC(C)=O)[C@@H](C)O)C(C)C)[C@@H](C)O)C(=O)N[C@@H](CCCNC(=N)N)C(=O)N[C@@H](C)C(=O)N[C@@H](C)C(=O)N[C@@H](CCCN)C(=O)N[C@@H](CCCN)C(=O)N[C@@H](CCCN)C(=O)N[C@@H](CCCN)C(=O)N[C@@H](CCCN)C(=O)N[C@@H](CCCN)C(=O)N[C@@H](CCCN)C(=O)N[C@@H](CCCN)C(N)=O [Peptide 3, Ac-TRVSRTGRSRWRDWSRNFMRAAOOOOOOOO-NH2] | – |
| 25 | 3 | – | – | – | 6 | CCCCCCCCCCCC(=O)NCCCC[C@@H](NC(=O)[C@@H](CCCNC(=N)N)NC(=O)[C@@H](CCSC)NC(=O)[C@@H](Cc1ccccc1)NC(=O)[C@@H](CC(N)=O)NC(=O)[C@@H](CCCNC(=N)N)NC(=O)[C@@H](CO)NC(=O)[C@@H](Cc1c[nH]c2ccccc12)NC(=O)[C@@H](CC(=O)O)NC(=O)[C@@H](CCCNC(=N)N)NC(=O)[C@@H](Cc1c[nH]c2ccccc12)NC(=O)[C@@H](CCCNC(=N)N)NC(=O)[C@@H](CO)NC(=O)[C@@H](CCCNC(=N)N)NC(=O)CNC(=O)[C@H](NC(=O)[C@@H](CCCNC(=N)N)NC(=O)[C@@H](CO)NC(=O)[C@H](NC(=O)[C@@H](CCCNC(=N)N)NC(=O)[C@H](NC(C)=O)[C@H](C)O)C(C)C)[C@H](C)O)C(N)=O [Peptide 65] (Ac-[dT][dR][dV][dS][dR][dT]G[dR][dS][dR][dW][dR][dD][dW][dS][dR][dN][dF][dM][dR][dK](Lauroyl)-NH2) | – |

The remaining lines, values behind:

| SMILES | MIC P. acnes [1] [µg·days/mL] | MIC S. aureus [2] [b ug/mL] | MIC S. epidermidis [3] [µg/mL] | MIC P. aeruginosa [4] [µg/mL] | MIC E. coli [5] [µg/mL] | MIC S. dublin (Salmonella dublin (Lane) [6]) [b ug/mL] | also measured |
| --- | --- | --- | --- | --- | --- | --- | --- |
| CSCC[C@@H](NC(=O)[C@@H](Cc1ccccc1)NC(=O)[C@@H](CC(N)=O)NC(=O)[C@@H](CCCNC(=N)N)NC(=O)[C@@H](C)NC(=O)[C@@H](Cc1c[nH]c2ccccc12)NC(=O)[C@@H](CC(=O)O)NC(=O)[C@@H](CCCNC(=N)N)NC(=O)[C@@H](Cc1c[nH]c2ccccc12)NC(=O)[C@@H](CCCNC(=N)N)NC(=O)[C@@H](CO)NC(=O)[C@@H](CCCNC(=N)N)NC(=O)CNC(=O)[C@H](NC(=O)[C@@H](CCCNC(=N)N)NC(=O)[C@@H](C)NC(=O)[C@H](NC(=O)[C@@H](CCCNC(=N)N)NC(=O)[C@H](NC(C)=O)[C@H](C)O)C(C)C)[C@H](C)O)C(=O)N[C@H](CCCNC(=N)N)C(N)=O [Peptide 56, Ac-trvartgrsrwrdwarnfmr-NH2] (Ac-[dT][dR][dV][dA][dR][dT]G[dR][dS][dR][dW][dR][dD][dW][dA][dR][dN][dF][dM][dR]-NH2) | 6 | – | 2 (≈ 0.763 µM) | >64 | 4 (≈ 1.53 µM) | – | MIC S. aureus [7]: >64 µg/mL; MIC S. dublin (Salmonella dublin (Lane) [8]): 8 µg/mL (≈ 3.05 µM); MIC C. albicans [9]: 64e ug/mL |
| CCCCCCCCCCCC(=O)N[C@@H](C(=O)N[C@H](CCCNC(=N)N)C(=O)N[C@@H](C(=O)N[C@H](CO)C(=O)N[C@H](CCCNC(=N)N)C(=O)N[C@@H](C(=O)NCC(=O)N[C@H](CCCNC(=N)N)C(=O)N[C@H](CO)C(=O)N[C@H](CCCNC(=N)N)C(=O)N[C@H](Cc1c[nH]c2ccccc12)C(=O)N[C@H](CCCNC(=N)N)C(=O)N[C@H](CC(=O)O)C(=O)N[C@H](Cc1c[nH]c2ccccc12)C(=O)N[C@H](CO)C(=O)N[C@H](CCCNC(=N)N)C(=O)N[C@H](CC(N)=O)C(=O)N[C@H](Cc1ccccc1)C(=O)N[C@H](CCSC)C(=O)N[C@H](CCCNC(=N)N)C(=O)N[C@H](C)C(=O)N[C@H](C)C(=O)N[C@@H](CCCCNC(C)=O)C(N)=O)[C@H](C)O)C(C)C)[C@H](C)O [Peptide 85, Lauryl-trvsrtgrsrwrdwsrnfmraaK(Ac)-NH2] | – | – | 2 (≈ 0.644 µM) | >64 | 8 (≈ 2.58 µM) | – | Hemolytic effect on human red blood cells (human red blood cells; 6.25 Micromolar): 16%; Hemolytic effect on human red blood cells (human red blood cells; 12.5 Micromolar): 26%; Hemolytic effect on human red blood cells (human red blood cells; 25 Micromolar): 36%; Hemolytic effect on human red blood cells (human red blood cells; 50 Micromolar): 53%; Hemolytic effect on human red blood cells (human red blood cells; 100 Micromolar): 83% |
| CCCCCCCCCCCC(=O)NCCCC[C@H](NC(=O)[C@H](CCCNC(=N)N)NC(=O)[C@H](CCSC)NC(=O)[C@H](Cc1ccccc1)NC(=O)[C@H](CC(N)=O)NC(=O)[C@H](CCCNC(=N)N)NC(=O)[C@H](CO)NC(=O)[C@H](Cc1c[nH]c2ccccc12)NC(=O)[C@H](CC(=O)O)NC(=O)[C@H](CCCNC(=N)N)NC(=O)[C@H](Cc1c[nH]c2ccccc12)NC(=O)[C@H](CCCNC(=N)N)NC(=O)[C@H](CO)NC(=O)[C@H](CCCNC(=N)N)NC(=O)CNC(=O)[C@@H](NC(=O)[C@H](CCCNC(=N)N)NC(=O)[C@H](CO)NC(=O)[C@@H](NC(=O)[C@H](CCCNC(=N)N)NC(=O)[C@@H](NC(=O)CCCCCCCCCCC)[C@@H](C)O)C(C)C)[C@@H](C)O)C(N)=O [Peptide 66] (Lauroyl-TRVSRTGRSRWRDWSRNFMRK(Lauroyl)-NH2) | 100 | 25 | – | – | – | 25 | – |
| CSCC[C@H](NC(=O)[C@H](Cc1ccccc1)NC(=O)[C@H](CC(N)=O)NC(=O)[C@H](CCCNC(=N)N)NC(=O)[C@H](CO)NC(=O)[C@H](Cc1c[nH]c2ccccc12)NC(=O)[C@H](CC(=O)O)NC(=O)[C@H](CCCNC(=N)N)NC(=O)[C@H](Cc1c[nH]c2ccccc12)NC(=O)[C@H](CCCNC(=N)N)NC(=O)[C@H](CO)NC(=O)[C@H](CCCNC(=N)N)NC(=O)CNC(=O)[C@@H](NC(=O)[C@H](CCCNC(=N)N)NC(=O)[C@H](CO)NC(=O)[C@@H](NC(=O)[C@H](CCCNC(=N)N)NC(=O)[C@@H](NC(C)=O)[C@@H](C)O)C(C)C)[C@@H](C)O)C(=O)N[C@@H](CCCNC(=N)N)C(=O)N[C@@H](CCCNC(=N)N)C(=O)N[C@@H](CCCNC(=N)N)C(N)=O [Peptide 13] (Ac-TRVSRTGRSRWRDWSRNFMRRR-NH2) | 25 | 25 | – | – | – | 25 | – |
| CSCC[C@@H](NC(=O)[C@@H](Cc1ccccc1)NC(=O)[C@@H](CC(N)=O)NC(=O)[C@@H](CCCNC(=N)N)NC(=O)[C@@H](CO)NC(=O)[C@@H](Cc1c[nH]c2ccccc12)NC(=O)[C@@H](CC(=O)O)NC(=O)[C@@H](CCCNC(=N)N)NC(=O)[C@@H](Cc1c[nH]c2ccccc12)NC(=O)[C@@H](CCCNC(=N)N)NC(=O)[C@@H](CO)NC(=O)[C@@H](CCCNC(=N)N)NC(=O)CNC(=O)[C@H](NC(=O)[C@@H](CCCNC(=N)N)NC(=O)[C@@H](CO)NC(=O)[C@H](NC(=O)[C@@H](CCCNC(=N)N)NC(=O)[C@H](NC(=O)[C@@H](C)NC(=O)[C@@H](C)NC(=O)[C@@H](CCCCN)NC(=O)[C@@H](CCCCN)NC(=O)[C@@H](CCCCN)NC(=O)[C@@H](CCCCN)NC(=O)[C@@H](CCCCN)NC(=O)[C@@H](CCCCN)NC(=O)[C@@H](CCCCN)NC(=O)[C@H](N)CCCCN)[C@H](C)O)C(C)C)[C@H](C)O)C(=O)N[C@H](CCCNC(=N)N)C(N)=O [Peptide 36, H2N-kkkkkkkkaatrvsrtgrsrwrdwsrnfmr-NH2] (H-[dK][dK][dK][dK][dK][dK][dK][dK][dA][dA][dT][dR][dV][dS][dR][dT]G[dR][dS][dR][dW][dR][dD][dW][dS][dR][dN][dF][dM][dR]-NH2) | 25 | 6 | – | – | – | 6 | – |
